A short description of series [1]: Analytical results of Azacitidine (API), untreated and gamma radiated: description, related substances. Type of series: physicochemical.
For series [2] the following is noted: cited from earlier work.
The conditions of series [3]: formation of RGU increased in acidic and basic conditions; cited from earlier work.

Like-named read-outs stand apart in the source and are kept apart here.

On to `Nc1ncn([C@@H]2O[C@H](CO)[C@@H](O)[C@H]2O)c(=O)n1` [Azacitidine, 4-amino-1-β-D-ribofuranosyl-1,3,5-triazin-2(1H)-one], for which the Description entry in series [1] (gamma radiated) and in series [1] (untreated) was “White to off” each time. Also, the “Related Substances: Single max. impurity” value in series [1] (gamma radiated) was found to be 0.05%; in series [1] (untreated), 0.04%. Besides, the “Related Substances: Total impurities” value is listed as 0.24% in series [1] (gamma radiated) and 0.19% in series [1] (untreated). In addition, the Solubility entry in series [2] (5% Tween 80 in water) was “sparingly soluble”; in series [2] (5% dextrose in water), “sparingly soluble”; in series [2] (N-methyl-2-pyrrolidone) it was “sparingly soluble”; in series [2] (acetone), “insoluble”; in series [2] (dimethylsulfoxide (DMSO)), “soluble”; in series [2] (ethanol/water (50/50)), “slightly soluble”. For the same compound, the Solubility result in series [2] (ethanol) is listed as “insoluble”; in series [2] (methyl ethyl ketone) it was “insoluble”; in series [2] (normal saline), “sparingly soluble”; in series [2] (polyethylene glycol) it was “slightly soluble”; in series [2] (propylene glycol), “slightly soluble”; in series [2] (water saturated octanol), “sparingly soluble”. Also, in series [2] (water), the Solubility entry was “sparingly soluble”. The “Optimal pH for stable formulation” value in series [3] is given as 6-7.

The values above are taken from patent US20160095925A1 (CADILA HEALTHCARE LIMITED, priority 2014, published 2016).
